Measurements published in patent publication US12077503B2, “Substituted cyclic amides and their use as herbicides” (FMC CORPORATION, priority 2015, dated 2024).

Columns and labels:
Format in all cases: in vivo
[1] = system: barnyardgrass (Echinochloa crus-galli); test: Test G Post-Emergence Protocol; conditions: Echinochloa crus-galli, post-emergence, 312 h
Summary of the method: (§1)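 Post-emergence herbicidal damage, scored visually 0–100 at 13 days. Application at 15.625, 62.5 or 250 g/ha onto 8-day-old plants grown under glasshouse control.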

[2] = system: redroot pigweed (Amaranthus retroflexus); test: Test G Post-Emergence Protocol; conditions: Amaranthus retroflexus, post-emergence, 312 h
Summary of the method: as §1

[3] = system: giant foxtail (Setaria faberi); test: Test G Post-Emergence Protocol; conditions: Setaria faberi, post-emergence, 312 h
Summary of the method: as §1

corn (Zea mays) [4] = test: Test G Post-Emergence Protocol; conditions: Zea mays, post-emergence, 312 h
Summary of the method: as §1

[5] = system: ivy-leaved morning glory (Ipomoea hederacea); test: Test G Post-Emergence Protocol; conditions: Ipomoea, post-emergence, 312 h
Summary of the method: as §1

[6] = system: velvetleaf (Abutilon theophrasti); test: Test G Post-Emergence Protocol; conditions: Abutilon theophrasti, post-emergence, 312 h
Summary of the method: as §1

[7] = system: barnyardgrass (Echinochloa crus-galli); test: Test G Pre-Emergence Protocol; conditions: Echinochloa crus-galli, pre-emergence, 312 h, evaluated after 13 days
Summary of the method: (§2)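 Glasshouse pre-emergence test: soil-sown seeds, sprayed after 1 d at 15.625, 62.5 or 250 g/ha. Conditions 24/16° C day/night, 14 h light, 65% humidity, watering twice daily. Rating 13 d post-spray (100 = total damage).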

[8] = system: redroot pigweed (Amaranthus retroflexus); test: Test G Pre-Emergence Protocol; conditions: Amaranthus retroflexus, pre-emergence, 312 h, evaluated after 13 days
Summary of the method: as §2

[9] = system: giant foxtail (Setaria faberi); test: Test G Pre-Emergence Protocol; conditions: Setaria faberi, pre-emergence, 312 h, evaluated after 13 days
Summary of the method: as §2

corn (Zea mays) [10] = test: Test G Pre-Emergence Protocol; conditions: Zea mays, pre-emergence, 312 h, evaluated after 13 days
Summary of the method: as §2

[11] = system: ivy-leaved morning glory (Ipomoea hederacea); test: Test G Pre-Emergence Protocol; conditions: Ipomoea, pre-emergence, 312 h, evaluated after 13 days
Summary of the method: as §2

[12] = system: velvetleaf (Abutilon theophrasti); test: Test G Pre-Emergence Protocol; conditions: Abutilon theophrasti, pre-emergence, 312 h, evaluated after 13 days
Summary of the method: as §2

CN1C[C@@H](c2ccc(C(F)(F)F)cc2)[C@H](C(=O)Nc2cccc(C(F)(F)F)c2[N+](=O)[O-])C1=O (racemic) [Compound 1594]
pest or weed control at 15.625 g/ha ([1]; 15.625 g ai/ha, evaluated after 13 days (100=total damage to plant; 0=no damage to plant), read-out: Barnyardgrass damage rating): 0%
pest or weed control at 62.5 g/ha ([1]; 62.5 g ai/ha, evaluated after 13 days, read-out: Barnyardgrass damage rating (100=total damage to plant; 0=no damage to plant)): 20%
pest or weed control at 250 g/ha ([1]; 250 g ai/ha, evaluated after 13 days, read-out: damage to plant, Barnyardgrass (100=total damage to plant; 0=no damage to plant)): 20%
pest or weed control at 15.625 g/ha ([2]; 15.625 g ai/ha, evaluated after 13 days (100=total damage to plant; 0=no damage to plant), read-out: Pigweed, Redroot damage rating): 0%
pest or weed control at 62.5 g/ha ([2]; 62.5 g ai/ha, evaluated after 13 days, read-out: Pigweed, Redroot damage rating (100=total damage to plant; 0=no damage to plant)): 0%
pest or weed control at 250 g/ha ([2]; 250 g ai/ha, evaluated after 13 days, read-out: damage to plant, Pigweed, Redroot (100=total damage to plant; 0=no damage to plant)): 0%
pest or weed control at 15.625 g/ha ([3]; 15.625 g ai/ha, evaluated after 13 days (100=total damage to plant; 0=no damage to plant), read-out: Foxtail, Giant damage rating): 0%
pest or weed control at 62.5 g/ha ([3]; 62.5 g ai/ha, evaluated after 13 days, read-out: Foxtail, Giant damage rating (100=total damage to plant; 0=no damage to plant)): 20%
pest or weed control at 250 g/ha ([3]; 250 g ai/ha, evaluated after 13 days, read-out: damage to plant, Foxtail, Giant (100=total damage to plant; 0=no damage to plant)): 20%
plant injury at 15.625 g/ha (corn (Zea mays) [4]; 15.625 g ai/ha, evaluated after 13 days (100=total damage to plant; 0=no damage to plant), read-out: Corn damage rating): 0%
plant injury at 62.5 g/ha (corn (Zea mays) [4]; 62.5 g ai/ha, evaluated after 13 days, read-out: Corn damage rating (100=total damage to plant; 0=no damage to plant)): 0%
plant injury at 250 g/ha (corn (Zea mays) [4]; 250 g ai/ha, evaluated after 13 days, read-out: damage to plant, Corn (100=total damage to plant; 0=no damage to plant)): 0%
pest or weed control at 15.625 g/ha ([5]; 15.625 g ai/ha, evaluated after 13 days (100=total damage to plant; 0=no damage to plant), read-out: Morningglory, Ivy-leaved damage rating): 0%
pest or weed control at 62.5 g/ha ([5]; 62.5 g ai/ha, evaluated after 13 days, read-out: Morningglory, Ivy-leaved damage rating (100=total damage to plant; 0=no damage to plant)): 0%
pest or weed control at 250 g/ha ([5]; 250 g ai/ha, evaluated after 13 days, read-out: damage to plant, Morningglory, Ivy-leaved (100=total damage to plant; 0=no damage to plant)): 0%
pest or weed control at 15.625 g/ha ([6]; 15.625 g ai/ha, evaluated after 13 days (100=total damage to plant; 0=no damage to plant), read-out: Velvetleaf damage rating): 0%
pest or weed control at 62.5 g/ha ([6]; 62.5 g ai/ha, evaluated after 13 days, read-out: Velvetleaf damage rating (100=total damage to plant; 0=no damage to plant)): 0%
pest or weed control at 250 g/ha ([6]; 250 g ai/ha, evaluated after 13 days, read-out: damage to plant, Velvetleaf (100=total damage to plant; 0=no damage to plant)): 0%
pest or weed control at 15.625 g/ha ([7]; 15.625 g ai/ha, read-out: Barnyard grass damage rating (100=total damage to plant; 0=no damage to plant)): 0%
pest or weed control at 62.5 g/ha ([7]; 62.5 g ai/ha, 100=total damage to plant, 0=no damage to plant, read-out: plant damage rating, Barnyardgrass): 20%
pest or weed control at 250 g/ha ([7]; 250 g ai/ha, read-out: Barnyardgrass damage rating (100=total damage to plant; 0=no damage to plant)): 20%
pest or weed control at 15.625 g/ha ([8]; 15.625 g ai/ha, read-out: Pigweed, Redroot damage rating (100=total damage to plant; 0=no damage to plant)): 0%
pest or weed control at 62.5 g/ha ([8]; 62.5 g ai/ha, 100=total damage to plant, 0=no damage to plant, read-out: plant damage rating, Pigweed, Redroot): 0%
pest or weed control at 250 g/ha ([8]; 250 g ai/ha, read-out: Pigweed, Redroot damage rating (100=total damage to plant; 0=no damage to plant)): 0%
pest or weed control at 15.625 g/ha ([9]; 15.625 g ai/ha, read-out: Foxtail, Giant damage rating (100=total damage to plant; 0=no damage to plant)): 0%
pest or weed control at 62.5 g/ha ([9]; 62.5 g ai/ha, 100=total damage to plant, 0=no damage to plant, read-out: plant damage rating, Foxtail, Giant): 40%
pest or weed control at 250 g/ha ([9]; 250 g ai/ha, read-out: Foxtail, Giant damage rating (100=total damage to plant; 0=no damage to plant)): 30%
plant injury at 15.625 g/ha (corn (Zea mays) [10]; 15.625 g ai/ha, read-out: Corn damage rating (100=total damage to plant; 0=no damage to plant)): 0%
plant injury at 62.5 g/ha (corn (Zea mays) [10]; 62.5 g ai/ha, 100=total damage to plant, 0=no damage to plant, read-out: plant damage rating, Corn): 10%
plant injury at 250 g/ha (corn (Zea mays) [10]; 250 g ai/ha, read-out: Corn damage rating (100=total damage to plant; 0=no damage to plant)): 10%
pest or weed control at 15.625 g/ha ([11]; 15.625 g ai/ha, read-out: Morning-glory, Ivy-leaved damage rating (100=total damage to plant; 0=no damage to plant)): 0%
pest or weed control at 62.5 g/ha ([11]; 62.5 g ai/ha, 100=total damage to plant, 0=no damage to plant, read-out: plant damage rating, Morningglory, Ivy-leaved): 0%
pest or weed control at 250 g/ha ([11]; 250 g ai/ha, read-out: Morningglory, Ivy-leaved damage rating (100=total damage to plant; 0=no damage to plant)): 0%
pest or weed control at 15.625 g/ha ([12]; 15.625 g ai/ha, read-out: Velvetleaf damage rating (100=total damage to plant; 0=no damage to plant)): 0%
pest or weed control at 62.5 g/ha ([12]; 62.5 g ai/ha, 100=total damage to plant, 0=no damage to plant, read-out: plant damage rating, Velvetleaf): 0%
pest or weed control at 250 g/ha ([12]; 250 g ai/ha, read-out: Velvetleaf damage rating (100=total damage to plant; 0=no damage to plant)): 0%
